# Assay results as given in PubChem BioAssay (NCI).
#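 A five-concentration, 48-hour dose response in 96-well plates underlies each endpoint, interpolated linearly between surrounding concentrations. GI50 is the concentration that inhibits growth by half. TGI: total growth inhibition.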
# Experiments:
# Assay in all cases: NCI anticancer screen, dose series, 48 h
# HS 578T breast = test system: HS 578T breast
# MDA-MB-231 breast = test system: MDA-MB-231 breast
# MDA-MB-435 = test system: MDA-MB-435
# NCI-H226 lung = test system: NCI-H226 lung
# SF-268 CNS = test system: SF-268 CNS
# SK-MEL-28 melanoma = test system: SK-MEL-28 melanoma
# SK-OV-3 ovarian = test system: SK-OV-3 ovarian
# SR leukemia = test system: SR leukemia
# UACC-62 melanoma = test system: UACC-62 melanoma
# ACHN renal = test system: ACHN renal
Compound,GI50 (HS 578T breast) [µM],TGI (HS 578T breast) [µM],GI50 (MDA-MB-231 breast) [µM],TGI (MDA-MB-231 breast) [µM],GI50 (MDA-MB-435) [µM],TGI (MDA-MB-435) [µM],GI50 (NCI-H226 lung) [µM],TGI (NCI-H226 lung) [µM],GI50 (SF-268 CNS) [µM],TGI (SF-268 CNS) [µM],GI50 (SK-MEL-28 melanoma) [µM],TGI (SK-MEL-28 melanoma) [µM],GI50 (SK-OV-3 ovarian) [µM],TGI (SK-OV-3 ovarian) [µM],GI50 (SR leukemia) [µM],GI50 (UACC-62 melanoma) [µM],TGI (UACC-62 melanoma) [µM],GI50 (ACHN renal) [µM],TGI (ACHN renal) [µM],TGI (SR leukemia) [µM]
COc1cc(OC)c(F)c(COc2cnc(Nc3cnn(CCO)c3)nc2)c1F,0.35,3.43,1.38,7.64,0.2,0.59,0.343,> 23.9,1.03,> 64.9,1.85,> 100,0.845,5.67,0.274,0.518,> 62,,,
CCCCCCCCNC(C)C(O)c1ccc(SC(C)C)cc1 (stereo not given),1.98,4.61,1.8,3.31,1.69,3.21,1.81,3.85,1.67,3.14,1.83,3.27,1.63,2.98,1.99,1.53,2.95,1.87,3.3,5.71
Fc1ccc([C@@H]2CCNC[C@H]2COc2ccc3c(c2)OCO3)cc1,19.8,62.3,3.07,15,2.31,7.96,13.7,29.9,10.8,23.5,5.96,19,12.7,25.7,2.02,5.52,18.8,10.8,24,5.34
O=C(Nc1ccc(Nc2ccncc2)cc1)c1ccc(Nc2ccnc3ccc([N+](=O)[O-])cc23)cc1[N+](=O)[O-],0.691,,24.6,> 61.8,23.3,> 100,37.5,> 93.9,,,5.26,> 46.1,19.3,40,16.6,11.1,58.8,15.5,37.2,38.8
O=C1NC(=O)[C@@H](c2c[nH]c3ccccc23)[C@@H]1c1c[nH]c2ccccc12,24.8,> 25,> 25,> 25,> 25,> 25,> 25,> 25,> 25,> 25,> 25,> 25,> 25,> 25,> 25,> 25,> 25,> 25,> 25,> 25
CN1CCN(c2ccc3nc(-c4[nH]ncc4Nc4ncnc5c4OCCCN5)[nH]c3c2)CC1,< 0.01,0.0302,< 0.01,0.0423,< 0.01,0.081,< 0.01,0.0573,< 0.0112,0.049,0.0161,0.104,< 0.0108,0.202,< 0.01,0.0103,0.0529,0.0139,0.105,
Nc1nccc2c1ccn2-c1cccc(NC(=O)c2ccc(N3CCOCC3)c(C(F)(F)F)c2)c1,0.34,2.43,0.874,2.86,0.163,> 50,1.74,18.1,1.21,> 46.7,1.06,> 47.5,0.741,6.52,0.205,0.429,6.12,0.826,11.5,> 11.3
CCCC(C)c1c(Cl)nc(Cl)nc1Cl (stereo not given),,> 100,,> 100,,21,,18.7,,> 100,,13.4,,43.8,,,,,15.5,> 100
O=C1CCSC(=S)N1c1ccc(Br)c(Cl)c1,,> 100,,70,,65.7,,63.9,,44.2,,34.9,,91.5,,,58.7,,38.9,> 100
COc1ccc(-c2nc(-c3ccccn3)c(-c3ccccn3)n2CC(C)C)cc1OC1CCCC1,9.71,79.4,18.2,125,31.3,> 165,21.3,> 165,43.8,> 165,38.7,159,27.6,116,7.77,,,6.92,> 165,49.2
